Data on 30 compounds can be found in PubChem BioAssay (NCI).

Molecules are shown by their SMILES.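 Five compound concentrations were applied to cells in 96-well plates for 48 hours; endpoints were derived by simple linear interpolation of the resulting dose-response curve. GI50 is the concentration that inhibits growth by half. TGI: concentration producing complete growth inhibition.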

One assay deals with NCI-H226 lung. In words: NCI anticancer screen, dose series, 48 h.
Consider `C=C[C@@H]1C(CO)=CCC2[C@H]1CCC1C(C)(C)C(=O)CC[C@]21C` (stereo not given in full), for which the TGI was more than 100 µM.
Same read-out and setting: the same measure for `C/C(CC1C2CCCC1C2)=N\NC(N)=O` (stereo not given): more than 100 µM.
On the same count and under the same terms, the same measure for `c1ccc2sc(SCSc3nc4ccccc4s3)nc2c1`: more than 100 µM.
`N#CC(C#N)=CNC(=S)c1ccncc1` returned a TGI of more than 100 µM.
For the compound `C=CCNC(=S)/N=C/c1c(O)c2ccccc2oc1=O`, the TGI was more than 100 µM.
Still for that read-out and setting: the figure for `O=C(CCCN1CCC2(CC1)CC(=O)N(N1CCOCC1)C2=O)c1ccccc1` is more than 100 µM.
Still for that read-out and setting: the figure for `Cc1ccccc1C(O)(c1nccn1C)c1nccn1C` is more than 100 µM; for `O=C(NC(Cc1ccc(I)cc1)C(=O)O)c1ccc(I)cc1` (stereo not given) it is more than 100 µM.
Same read-out and setting: the same measure for `O=[N+]([O-])/C(C(Cl)=C(Cl)Cl)=C(\Nc1cccc2cccnc12)SCc1ccccc1`: 48.6 µM; for `CCCCC1c2c([nH]c3ccccc23)C2C(=O)N(c3ccc(OC)cc3)C(=O)C2C1CCC` (stereo not given): more than 10 µM; for `COc1ccc(C#CC(=O)O)c(OC)c1`: more than 100 µM.
Regarding `CSc1cc(Cl)c(C)cc1S(=O)(=O)NC(=O)NNc1ccc(Cl)cc1`, the TGI is more than 100 µM.
Still for that read-out and setting: the same measure for `O=c1ccc2cc3ccc4cccc5ccc(c2o1)c3c45`: 58.3 µM; for `O=c1c2ccccc2nc2[nH][nH]c(=S)n12`: more than 100 µM; for `O=S(=O)(O)c1cc2ccc1/C=C\c1ccc(cc1S(=O)(=O)O)N=Nc1ccc(c(S(=O)(=O)O)c1)/C=C\c1ccc(cc1S(=O)(=O)O)N=N2`: more than 100 µM.
Compound `COc1ccc(CC(O)CN2CCOCC2)cc1` (stereo not given) returned a TGI of more than 100 µM.
The same measure, in the same setting: the figure for `N#C/C(=C\c1cc(Br)c(O)c(Br)c1)c1cccnc1` is 91.4 µM.

For the next assay, the system named is OVCAR-8 ovarian. In words: NCI anticancer screen, dose series, 48 h.
The compound `CS(=O)(=O)OCCn1c(=O)n(CCOS(C)(=O)=O)c(=O)n(CCOS(C)(=O)=O)c1=O` yielded a TGI of more than 100 µM.
Take `c1ccc2c(c1)NC(C1OC3CCCN3C1C1Nc3ccccc3S1)S2` (stereo not given): the TGI is more than 100 µM.
The same measure, in the same setting: the same measure for `CC(=O)O[C@]12CCCCCC1C1(O)C(O)CCC[C@H]12` (stereo not given in full): more than 100 µM.
On the same count and under the same terms, the same measure for `CC(C)(C)NC(=O)/C(=C\Sc1ccccc1)c1ccc2c(c1)OCO2`: more than 100 µM.
Same read-out and setting: the figure for `COc1nc(C#CCC(C)O)nc(OC)n1` (stereo not given) is 39.5 µM; for `COCOc1ccc(Cn2c(=O)n(C)c(=O)c3c2ncn3C)cc1[N+](=O)[O-]` it is more than 100 µM.
Turning to `BrC/C=C/C[P+](c1ccccc1)(c1ccccc1)c1ccccc1`, the TGI was more than 100 µM.
The compound `Cc1cc(=O)c2c([nH]1)NS(=O)(=O)NC2=O` returned a TGI of more than 100 µM.
In turn, `CC12CC(=O)C3C(C(=O)C1)C32C` (stereo not given) showed a TGI of more than 100 µM.
As to `COc1cc([N+](=O)[O-])c(OC)cc1-c1nc2sc(Cl)cn2c1/C=N/Nc1ccccn1`, the GI50 was 17.3 µM and the TGI was more than 50 µM.
Compound `CC(=O)N/N=C1\NC(=O)C[C@H]2[C@@H]3CC=C4C[C@@H](OC(C)=O)CC[C@]4(C)[C@H]3CC[C@]12C` registered a TGI of more than 100 µM.
`C/C(CC1C2CCCC1C2)=N\NC(N)=O` (stereo not given) gave a TGI of more than 100 µM.
On the same count and under the same terms, the figure for `c1ccc2sc(SCSc3nc4ccccc4s3)nc2c1` is more than 100 µM; for `N#CC(C#N)=CNC(=S)c1ccncc1` it is more than 100 µM.
Still for that read-out and setting: the figure for `C=CCNC(=S)/N=C/c1c(O)c2ccccc2oc1=O` is more than 100 µM; for `O=C(CCCN1CCC2(CC1)CC(=O)N(N1CCOCC1)C2=O)c1ccccc1` it is more than 100 µM.
Still for that read-out and setting: the figure for `CC(=O)N(C(C)=O)C1=C2c3ccccc3N(S(=O)(=O)c3ccccc3)C2n2c(=O)n(-c3ccccc3)c(=O)n2C1` (stereo not given) is more than 100 µM; for `Cc1ccccc1C(O)(c1nccn1C)c1nccn1C` it is more than 100 µM; for `O=C(NC(Cc1ccc(I)cc1)C(=O)O)c1ccc(I)cc1` (stereo not given) it is more than 100 µM.
Take `CCCCC1c2c([nH]c3ccccc23)C2C(=O)N(c3ccc(OC)cc3)C(=O)C2C1CCC` (stereo not given): the TGI came to 8.24 µM.
The same measure, in the same setting: the same measure for `COc1ccc(C#CC(=O)O)c(OC)c1`: more than 100 µM; for `CSc1cc(Cl)c(C)cc1S(=O)(=O)NC(=O)NNc1ccc(Cl)cc1`: more than 100 µM; for `O=c1ccc2cc3ccc4cccc5ccc(c2o1)c3c45`: more than 100 µM.
Compound `O=c1c2ccccc2nc2[nH][nH]c(=S)n12` returned a TGI of more than 100 µM.
For `O=S(=O)(O)c1cc2ccc1/C=C\c1ccc(cc1S(=O)(=O)O)N=Nc1ccc(c(S(=O)(=O)O)c1)/C=C\c1ccc(cc1S(=O)(=O)O)N=N2`, the TGI is more than 100 µM.
On the same count and under the same terms, the figure for `COc1ccc(CC(O)CN2CCOCC2)cc1` (stereo not given) is more than 100 µM.
Turning to `N#C/C(=C\c1cc(Br)c(O)c(Br)c1)c1cccnc1`, the TGI was more than 100 µM.

Another assay relates to RXF 393 renal. Briefly: NCI anticancer screen, dose series, 48 h.
Consider `CS(=O)(=O)OCCn1c(=O)n(CCOS(C)(=O)=O)c(=O)n(CCOS(C)(=O)=O)c1=O`, for which the TGI is more than 100 µM.
Same read-out and setting: the figure for `c1ccc2c(c1)NC(C1OC3CCCN3C1C1Nc3ccccc3S1)S2` (stereo not given) is 97 µM; for `CC(=O)O[C@]12CCCCCC1C1(O)C(O)CCC[C@H]12` (stereo not given in full) it is more than 100 µM.
`COc1nc(C#CCC(C)O)nc(OC)n1` (stereo not given) returned a TGI of 24.2 µM.
Take `COCOc1ccc(Cn2c(=O)n(C)c(=O)c3c2ncn3C)cc1[N+](=O)[O-]`: the TGI is more than 100 µM.
Turning to `COc1ccc2cc(-c3ccc(-c4ccc(C(=N)N)s4)s3)ccc2c1`, the GI50 was 7.22 µM and the TGI was determined as 23.2 µM.
For the compound `CC12CC(=O)C3C(C(=O)C1)C32C` (stereo not given), the TGI is more than 100 µM.
Consider `COc1cc([N+](=O)[O-])c(OC)cc1-c1nc2sc(Cl)cn2c1/C=N/Nc1ccccn1`, for which the GI50 was 12.6 µM and the TGI came out at 26.2 µM.
In turn, `C=C[C@@H]1C(CO)=CCC2[C@H]1CCC1C(C)(C)C(=O)CC[C@]21C` (stereo not given in full) yielded a TGI of more than 100 µM.
Same read-out and setting: the figure for `c1ccc2sc(SCSc3nc4ccccc4s3)nc2c1` is more than 100 µM; for `N#CC(C#N)=CNC(=S)c1ccncc1` it is more than 100 µM.
Still for that read-out and setting: the same measure for `C=CCNC(=S)/N=C/c1c(O)c2ccccc2oc1=O`: 85.8 µM; for `O=C(CCCN1CCC2(CC1)CC(=O)N(N1CCOCC1)C2=O)c1ccccc1`: more than 100 µM; for `Cc1ccccc1C(O)(c1nccn1C)c1nccn1C`: more than 100 µM.
`O=C(NC(Cc1ccc(I)cc1)C(=O)O)c1ccc(I)cc1` (stereo not given) gave a TGI of more than 100 µM.
On the same count and under the same terms, the figure for `CCCCC1c2c([nH]c3ccccc23)C2C(=O)N(c3ccc(OC)cc3)C(=O)C2C1CCC` (stereo not given) is more than 10 µM.
Same read-out and setting: the figure for `CSc1cc(Cl)c(C)cc1S(=O)(=O)NC(=O)NNc1ccc(Cl)cc1` is more than 100 µM; for `O=S(=O)(O)c1cc2ccc1/C=C\c1ccc(cc1S(=O)(=O)O)N=Nc1ccc(c(S(=O)(=O)O)c1)/C=C\c1ccc(cc1S(=O)(=O)O)N=N2` it is more than 100 µM.
